In article PMC12090182, “Repurposing of the RIPK1-Selective Benzo[1,4]oxazepin-4-one Scaffold for the Development of a Type III LIMK1/2 Inhibitor” (ACS Chemical Biology, 2025):

Experiments:
Assay in all cases: scanMAX KINOMEscan (Eurofins)
Format in all cases: binding
LTK = LTK (Homo sapiens, UniProt P29376); details: 1000 nM, read-out: Percent Control
Description: (§1) Supplement cb5c00097_si_002.xlsx, sheet "Table S6 (Eurofins Selectivity)" | column: Percent Control

JNK3 = JNK3 (Homo sapiens, UniProt P53779); details: 1000 nM, read-out: Percent Control
Description: as §1

DRAK1 = DRAK1 (Homo sapiens, UniProt Q9UEE5); details: 1000 nM, read-out: Percent Control
Description: as §1

HIPK1 = HIPK1 (Homo sapiens, UniProt Q86Z02); details: 1000 nM, read-out: Percent Control
Chain of HIPK1 (Q86Z02 whole entry): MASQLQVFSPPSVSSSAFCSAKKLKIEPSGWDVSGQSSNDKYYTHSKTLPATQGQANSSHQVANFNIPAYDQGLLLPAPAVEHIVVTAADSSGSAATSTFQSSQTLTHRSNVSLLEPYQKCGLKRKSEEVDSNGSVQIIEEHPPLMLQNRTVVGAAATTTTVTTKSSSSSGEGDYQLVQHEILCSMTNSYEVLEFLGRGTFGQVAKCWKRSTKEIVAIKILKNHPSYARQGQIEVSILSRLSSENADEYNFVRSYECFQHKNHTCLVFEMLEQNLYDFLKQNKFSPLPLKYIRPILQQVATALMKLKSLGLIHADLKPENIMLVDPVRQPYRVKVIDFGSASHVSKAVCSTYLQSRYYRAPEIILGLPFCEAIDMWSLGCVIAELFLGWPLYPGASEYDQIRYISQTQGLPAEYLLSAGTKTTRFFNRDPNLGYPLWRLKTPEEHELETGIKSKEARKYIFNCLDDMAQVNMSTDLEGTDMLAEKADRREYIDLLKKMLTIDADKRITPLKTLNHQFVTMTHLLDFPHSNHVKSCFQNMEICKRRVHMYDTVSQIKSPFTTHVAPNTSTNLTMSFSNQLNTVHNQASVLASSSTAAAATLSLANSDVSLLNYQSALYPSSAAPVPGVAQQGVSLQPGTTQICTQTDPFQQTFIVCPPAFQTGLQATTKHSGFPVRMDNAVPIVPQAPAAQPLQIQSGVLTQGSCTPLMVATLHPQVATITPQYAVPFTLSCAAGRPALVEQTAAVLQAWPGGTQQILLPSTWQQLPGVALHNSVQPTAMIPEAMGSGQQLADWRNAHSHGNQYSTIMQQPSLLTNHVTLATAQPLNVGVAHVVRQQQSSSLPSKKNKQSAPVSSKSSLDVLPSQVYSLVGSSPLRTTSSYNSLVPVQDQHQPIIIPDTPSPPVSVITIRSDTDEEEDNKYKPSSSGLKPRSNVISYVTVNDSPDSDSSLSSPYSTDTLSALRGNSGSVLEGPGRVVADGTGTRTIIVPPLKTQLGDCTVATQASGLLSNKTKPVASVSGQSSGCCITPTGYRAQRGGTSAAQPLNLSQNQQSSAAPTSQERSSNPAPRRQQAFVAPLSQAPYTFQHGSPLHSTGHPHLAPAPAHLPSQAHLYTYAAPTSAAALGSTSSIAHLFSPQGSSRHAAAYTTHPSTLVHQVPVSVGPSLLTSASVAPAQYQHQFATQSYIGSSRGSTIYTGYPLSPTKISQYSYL
Description: as §1

[1] = target: RSK1(Kin.Dom.1-N-terminal) (Homo sapiens, UniProt Q15418); details: compound concentration 100 nM; Entrez RPS6KA1; read-out: Percent Control
Description: as §1

PIP5K2C = PIP5K2C (Homo sapiens, UniProt Q8TBX8); details: 1000 nM, read-out: Percent Control
Description: as §1

PAK6 = PAK6 (Homo sapiens, UniProt Q9NQU5); details: compound concentration 100 nM; Entrez PAK6; read-out: Percent Control
Description: as §1

EPHA6 = EPHA6 (Homo sapiens, UniProt Q9UF33); details: 1000 nM, read-out: Percent Control
Description: as §1

DRAK2 = DRAK2 (Homo sapiens, UniProt O94768); details: 1000 nM, read-out: Percent Control
Description: as §1

STK39 = STK39 (Homo sapiens, UniProt Q9UEW8); details: 1000 nM, read-out: Percent Control
Description: as §1

NEK4 = NEK4 (Homo sapiens, UniProt P51957); details: compound concentration 100 nM; Entrez NEK4; read-out: Percent Control
Chain of NEK4 (P51957 whole entry): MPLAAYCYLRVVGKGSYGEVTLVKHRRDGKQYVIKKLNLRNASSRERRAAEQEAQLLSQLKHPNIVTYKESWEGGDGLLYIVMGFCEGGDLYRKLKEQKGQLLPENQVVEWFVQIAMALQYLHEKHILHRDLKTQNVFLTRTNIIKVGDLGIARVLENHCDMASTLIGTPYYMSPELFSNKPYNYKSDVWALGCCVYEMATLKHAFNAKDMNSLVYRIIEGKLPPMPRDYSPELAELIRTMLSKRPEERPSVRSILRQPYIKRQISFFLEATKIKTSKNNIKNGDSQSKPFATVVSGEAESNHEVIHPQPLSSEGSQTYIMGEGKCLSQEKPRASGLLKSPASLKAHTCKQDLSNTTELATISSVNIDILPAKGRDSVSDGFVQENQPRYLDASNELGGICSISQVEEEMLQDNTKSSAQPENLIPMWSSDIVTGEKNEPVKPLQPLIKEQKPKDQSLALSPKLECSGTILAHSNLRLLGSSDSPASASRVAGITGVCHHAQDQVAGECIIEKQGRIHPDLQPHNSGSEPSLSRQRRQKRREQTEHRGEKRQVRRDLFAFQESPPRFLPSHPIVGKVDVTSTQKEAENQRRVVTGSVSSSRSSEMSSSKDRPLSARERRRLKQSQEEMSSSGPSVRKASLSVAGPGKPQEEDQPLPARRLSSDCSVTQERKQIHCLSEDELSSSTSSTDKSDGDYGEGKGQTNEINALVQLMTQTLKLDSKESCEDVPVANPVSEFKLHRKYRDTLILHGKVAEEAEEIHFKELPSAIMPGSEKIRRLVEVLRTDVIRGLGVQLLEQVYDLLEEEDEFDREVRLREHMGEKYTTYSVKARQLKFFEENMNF
Description: as §1

PLK1 = PLK1 (Homo sapiens, UniProt P53350); details: 1000 nM, read-out: Percent Control
Description: as §1

CAMKK1 = CAMKK1 (Homo sapiens, UniProt Q8N5S9); details: 1000 nM, read-out: Percent Control
Description: as §1

YANK2 = YANK2 (Homo sapiens, UniProt Q9NY57); details: compound concentration 100 nM; Entrez STK32B; read-out: Percent Control
Description: as §1

KIT-autoinhibited = KIT-autoinhibited (Homo sapiens, UniProt P10721); details: 1000 nM, read-out: Percent Control
Description: as §1

SIK2 = SIK2 (Homo sapiens, UniProt Q9H0K1); details: compound concentration 100 nM; Entrez SIK2; read-out: Percent Control
Description: as §1

[2] = target: RPS6KA4(Kin.Dom.1-N-terminal) (Homo sapiens, UniProt O75676); details: compound concentration 100 nM; Entrez RPS6KA4; read-out: Percent Control
Description: as §1

HASPIN = HASPIN (Homo sapiens, UniProt Q8TF76); details: 1000 nM, read-out: Percent Control
Description: as §1

CSNK2A1 = CSNK2A1 (Homo sapiens, UniProt P68400); details: read-out: Percent Control
Chain of CSNK2A1 (P68400 whole entry): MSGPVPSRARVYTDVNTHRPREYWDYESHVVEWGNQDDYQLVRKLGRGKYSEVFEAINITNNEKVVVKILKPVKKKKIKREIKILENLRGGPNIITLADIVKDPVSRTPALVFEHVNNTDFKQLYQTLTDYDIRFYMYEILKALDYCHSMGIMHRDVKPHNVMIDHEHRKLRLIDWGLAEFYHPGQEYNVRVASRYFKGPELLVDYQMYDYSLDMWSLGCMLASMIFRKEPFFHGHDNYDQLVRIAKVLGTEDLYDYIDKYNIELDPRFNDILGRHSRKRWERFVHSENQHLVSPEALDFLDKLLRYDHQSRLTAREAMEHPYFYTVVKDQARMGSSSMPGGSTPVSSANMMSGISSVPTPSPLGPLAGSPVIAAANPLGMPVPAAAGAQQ
Description: as §1

ZAK = ZAK (Homo sapiens, UniProt Q9NYL2); details: compound concentration 100 nM; Entrez ZAK; read-out: Percent Control
Description: as §1

MAP4K5 = MAP4K5 (Homo sapiens, UniProt Q9Y4K4); details: 1000 nM, read-out: Percent Control
Description: as §1

TLK1 = TLK1 (Homo sapiens, UniProt Q9UKI8); details: compound concentration 100 nM; Entrez TLK1; read-out: Percent Control
Description: as §1

GRK7 = GRK7 (Homo sapiens, UniProt Q8WTQ7); details: 1000 nM, read-out: Percent Control
Description: as §1

MARK2 = MARK2 (Homo sapiens, UniProt Q7KZI7); details: 1000 nM, read-out: Percent Control
Chain of MARK2 (Q7KZI7 whole entry): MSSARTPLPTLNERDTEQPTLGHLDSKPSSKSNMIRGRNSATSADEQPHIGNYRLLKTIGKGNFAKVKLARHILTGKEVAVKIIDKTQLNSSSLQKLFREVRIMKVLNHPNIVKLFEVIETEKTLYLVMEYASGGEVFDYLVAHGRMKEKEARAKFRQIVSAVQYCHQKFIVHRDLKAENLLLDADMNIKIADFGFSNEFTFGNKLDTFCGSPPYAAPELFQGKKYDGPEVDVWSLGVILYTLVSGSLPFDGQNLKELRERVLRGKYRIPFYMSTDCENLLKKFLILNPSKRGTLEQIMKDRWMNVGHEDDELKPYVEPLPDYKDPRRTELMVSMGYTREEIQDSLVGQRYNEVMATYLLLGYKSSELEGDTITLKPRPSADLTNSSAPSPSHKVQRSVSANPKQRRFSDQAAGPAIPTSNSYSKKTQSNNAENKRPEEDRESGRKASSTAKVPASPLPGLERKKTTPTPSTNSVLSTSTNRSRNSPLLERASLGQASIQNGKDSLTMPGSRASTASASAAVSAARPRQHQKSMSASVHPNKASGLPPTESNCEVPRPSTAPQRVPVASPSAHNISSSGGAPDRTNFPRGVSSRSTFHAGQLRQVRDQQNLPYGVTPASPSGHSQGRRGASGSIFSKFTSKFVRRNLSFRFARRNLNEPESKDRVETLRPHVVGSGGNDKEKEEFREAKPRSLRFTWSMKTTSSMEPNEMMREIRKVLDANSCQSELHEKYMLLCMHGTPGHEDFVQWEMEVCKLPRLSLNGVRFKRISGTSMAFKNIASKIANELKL
Description: as §1

[3] = target: RPS6KA5(Kin.Dom.1-N-terminal) (Homo sapiens, UniProt O75582); details: compound concentration 100 nM; Entrez RPS6KA5; read-out: Percent Control
Chain of RPS6KA5(Kin.Dom.1-N-terminal) (O75582 49-387): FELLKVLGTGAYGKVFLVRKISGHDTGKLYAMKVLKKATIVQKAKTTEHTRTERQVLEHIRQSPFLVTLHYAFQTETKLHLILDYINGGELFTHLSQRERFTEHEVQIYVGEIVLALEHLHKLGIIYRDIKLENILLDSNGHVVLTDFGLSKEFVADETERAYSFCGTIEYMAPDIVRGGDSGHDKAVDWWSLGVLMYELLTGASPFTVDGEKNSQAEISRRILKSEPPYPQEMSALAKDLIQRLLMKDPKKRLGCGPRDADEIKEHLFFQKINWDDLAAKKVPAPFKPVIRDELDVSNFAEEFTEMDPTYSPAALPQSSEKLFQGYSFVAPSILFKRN
Description: as §1

TESK1 = TESK1 (Homo sapiens, UniProt Q15569); details: 1000 nM, read-out: Percent Control
Description: as §1

PFTK1 = PFTK1 (Homo sapiens, UniProt O94921); details: 1000 nM, read-out: Percent Control
Description: as §1

PIP5K1C = PIP5K1C (Homo sapiens, UniProt O60331); details: compound concentration 100 nM; Entrez PIP5K1C; read-out: Percent Control
Description: as §1

DYRK1B = DYRK1B (Homo sapiens, UniProt Q9Y463); details: read-out: Percent Control
Chain of DYRK1B (Q9Y463 whole entry): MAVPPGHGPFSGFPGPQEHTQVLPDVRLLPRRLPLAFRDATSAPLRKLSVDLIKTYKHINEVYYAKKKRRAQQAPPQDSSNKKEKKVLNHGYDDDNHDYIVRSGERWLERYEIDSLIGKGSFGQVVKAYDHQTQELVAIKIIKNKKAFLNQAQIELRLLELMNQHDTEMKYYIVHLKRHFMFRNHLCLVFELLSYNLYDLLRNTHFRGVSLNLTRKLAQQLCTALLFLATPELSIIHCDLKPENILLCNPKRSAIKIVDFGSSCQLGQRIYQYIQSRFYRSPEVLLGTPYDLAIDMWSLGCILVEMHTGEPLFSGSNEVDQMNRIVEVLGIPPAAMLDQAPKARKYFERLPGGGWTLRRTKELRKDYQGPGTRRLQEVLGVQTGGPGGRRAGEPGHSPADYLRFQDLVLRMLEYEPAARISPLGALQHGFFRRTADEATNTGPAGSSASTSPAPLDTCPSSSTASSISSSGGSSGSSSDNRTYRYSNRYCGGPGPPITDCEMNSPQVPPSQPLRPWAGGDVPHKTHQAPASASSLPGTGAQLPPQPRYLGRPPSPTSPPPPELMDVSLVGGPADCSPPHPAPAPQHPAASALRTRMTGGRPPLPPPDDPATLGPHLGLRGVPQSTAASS
Description: as §1

CSF1R-autoinhibited = CSF1R-autoinhibited (Homo sapiens, UniProt P07333); details: 1000 nM, read-out: Percent Control
Description: as §1

MAP4K2 = MAP4K2 (Homo sapiens, UniProt Q12851); details: 1000 nM, read-out: Percent Control
Chain of MAP4K2 (Q12851 whole entry): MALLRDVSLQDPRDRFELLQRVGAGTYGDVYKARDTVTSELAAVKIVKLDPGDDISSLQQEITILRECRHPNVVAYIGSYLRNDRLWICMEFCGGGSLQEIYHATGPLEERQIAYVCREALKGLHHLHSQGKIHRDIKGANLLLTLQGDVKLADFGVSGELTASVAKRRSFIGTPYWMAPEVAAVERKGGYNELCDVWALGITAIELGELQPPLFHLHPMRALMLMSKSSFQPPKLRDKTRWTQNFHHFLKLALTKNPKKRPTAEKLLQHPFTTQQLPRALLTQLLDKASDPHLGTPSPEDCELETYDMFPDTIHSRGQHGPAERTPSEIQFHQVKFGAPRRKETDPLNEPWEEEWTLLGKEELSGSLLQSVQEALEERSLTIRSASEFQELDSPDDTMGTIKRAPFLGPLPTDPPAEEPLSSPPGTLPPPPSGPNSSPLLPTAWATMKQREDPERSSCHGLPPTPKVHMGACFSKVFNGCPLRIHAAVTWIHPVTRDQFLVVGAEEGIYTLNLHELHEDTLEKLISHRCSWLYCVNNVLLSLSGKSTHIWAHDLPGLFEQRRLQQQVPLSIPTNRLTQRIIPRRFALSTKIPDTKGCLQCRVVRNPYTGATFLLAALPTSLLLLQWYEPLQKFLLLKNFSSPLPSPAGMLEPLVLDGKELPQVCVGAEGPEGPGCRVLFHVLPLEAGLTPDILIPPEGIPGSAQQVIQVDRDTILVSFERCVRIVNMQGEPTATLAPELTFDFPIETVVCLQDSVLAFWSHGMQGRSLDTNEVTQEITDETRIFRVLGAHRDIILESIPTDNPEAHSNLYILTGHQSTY
Description: as §1

TYRO3 = TYRO3 (Homo sapiens, UniProt Q06418); details: 1000 nM, read-out: Percent Control
Description: as §1

TLK2 = TLK2 (Homo sapiens, UniProt Q86UE8); details: compound concentration 100 nM; Entrez TLK2; read-out: Percent Control
Description: as §1

MST3 = MST3 (Homo sapiens, UniProt Q9Y6E0); details: 1000 nM, read-out: Percent Control
Description: as §1

SLK = SLK (Homo sapiens, UniProt Q9H2G2); details: 1000 nM, read-out: Percent Control
Description: as §1

PIK3CA = PIK3CA (Homo sapiens, UniProt P42336); details: 1000 nM, read-out: Percent Control
Description: as §1

For CN1C(=O)[C@@H](N2CCc3c(nn(Cc4ccccc4)c3C(N)=O)C2=O)COc2cc(Cl)ccc21 [Compound 10, (S)-2-benzyl-6-(8-chloro-5-methyl-4-oxo-2,3,4,5-tetrahydrobenzo[b][1,4]oxazepin-3-yl)-7-oxo-4,5,6,7-tetrahydro-2H-pyrazolo[3,4-c]pyridine-3-carboxamide], the remaining binding at 1 µM (LTK) was 86%, the remaining binding at 1 µM (JNK3) was 95% and the remaining binding at 1 µM (DRAK1) was 91%. For the same compound, the remaining binding at 1 µM (HIPK1) was 93%, the remaining binding at 0.1 µM [1] was 75% and the remaining binding at 1 µM (PIP5K2C) was 92%. It also gave a remaining binding at 0.1 µM (PAK6) of 93%, a remaining binding at 1 µM (EPHA6) of 86% and a remaining binding at 1 µM (DRAK2) of 82%. For the same compound, the remaining binding at 1 µM (STK39) was 84%, the remaining binding at 0.1 µM (NEK4) was 91% and the remaining binding at 1 µM (PLK1) was 73%. For the same compound, the remaining binding at 1 µM (CAMKK1) was 74%, the remaining binding at 0.1 µM (YANK2) was 99% and the remaining binding at 1 µM (KIT-autoinhibited) was 97%. The remaining binding at 0.1 µM (SIK2) was 71%, the remaining binding at 0.1 µM [2] was 81% and the remaining binding at 1 µM (HASPIN) was 96%. For the same compound, the remaining binding at 1 µM (CSNK2A1; 1000 nM) was 100%, the remaining binding at 0.1 µM (CSNK2A1; compound concentration 100 nM, Entrez CSNK2A1) was 82% and the remaining binding at 0.1 µM (ZAK) was 89%. It also gave a remaining binding at 1 µM (MAP4K5) of 88%, a remaining binding at 0.1 µM (TLK1) of 88% and a remaining binding at 1 µM (GRK7) of 98%. The remaining binding at 1 µM (MARK2) was 81%, the remaining binding at 0.1 µM [3] was 92% and the remaining binding at 1 µM (TESK1) was 79%. For the same compound, the remaining binding at 1 µM (PFTK1) was 79%, the remaining binding at 0.1 µM (PIP5K1C) was 100% and the remaining binding at 1 µM (DYRK1B; 1000 nM) was 100%. The remaining binding at 0.1 µM (DYRK1B; compound concentration 100 nM, Entrez DYRK1B) was 100%, the remaining binding at 1 µM (CSF1R-autoinhibited) was 74% and the remaining binding at 1 µM (MAP4K2) was 88%. For the same compound, the remaining binding at 1 µM (TYRO3) was 97%, the remaining binding at 0.1 µM (TLK2) was 82% and the remaining binding at 1 µM (MST3) was 96%. It also gave a remaining binding at 1 µM (SLK) of 78% and a remaining binding at 1 µM (PIK3CA) of 92%.
